Measurements reported in PMC3974779, “Pterostilbene-Isothiocyanate Conjugate Suppresses Growth of Prostate Cancer Cells Irrespective of Androgen Receptor Status” (PLoS ONE, 2014).

Assays:
[1] = molecular target: T1, hAR in PC-3 cells (Homo sapiens, UniProt P10275); experiment: AR transactivation luciferase assay (pSG5-hAR + pMMTV-luc); assay type: cell-based; details: 10 nM DHT
T1 construct: full length hAR in pSG5 expression vector; expressed in transfected cells; host or cells: PC-3 (AR-negative)
T1 sequence (P10275 1-920): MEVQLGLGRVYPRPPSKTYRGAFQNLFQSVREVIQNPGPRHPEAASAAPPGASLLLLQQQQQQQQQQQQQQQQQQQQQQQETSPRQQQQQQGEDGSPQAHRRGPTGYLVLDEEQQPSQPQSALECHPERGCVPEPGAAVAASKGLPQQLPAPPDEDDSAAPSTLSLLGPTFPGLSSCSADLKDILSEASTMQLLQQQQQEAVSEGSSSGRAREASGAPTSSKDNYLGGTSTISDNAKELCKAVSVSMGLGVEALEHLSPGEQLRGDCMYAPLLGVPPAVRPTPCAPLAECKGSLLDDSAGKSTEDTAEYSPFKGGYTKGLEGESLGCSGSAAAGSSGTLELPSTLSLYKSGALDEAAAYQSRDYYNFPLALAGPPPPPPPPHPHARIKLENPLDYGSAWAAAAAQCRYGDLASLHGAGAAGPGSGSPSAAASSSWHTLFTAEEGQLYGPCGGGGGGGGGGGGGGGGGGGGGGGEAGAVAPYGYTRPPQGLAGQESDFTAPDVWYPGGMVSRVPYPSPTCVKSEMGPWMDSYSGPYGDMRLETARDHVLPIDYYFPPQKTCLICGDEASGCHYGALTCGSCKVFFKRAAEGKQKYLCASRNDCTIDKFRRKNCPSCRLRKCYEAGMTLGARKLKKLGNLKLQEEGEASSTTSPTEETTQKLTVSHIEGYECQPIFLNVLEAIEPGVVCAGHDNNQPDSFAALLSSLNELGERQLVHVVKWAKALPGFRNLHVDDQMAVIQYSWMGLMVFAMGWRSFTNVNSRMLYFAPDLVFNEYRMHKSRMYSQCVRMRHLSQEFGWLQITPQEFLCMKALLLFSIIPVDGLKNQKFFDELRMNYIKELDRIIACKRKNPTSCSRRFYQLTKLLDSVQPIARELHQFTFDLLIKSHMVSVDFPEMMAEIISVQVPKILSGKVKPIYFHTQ
Method: The LNCaP cells were grown and transiently transfected with pMMTV-neomycin-luciferase plasmid (300 ng/10^5 cells) in RPMI media supplemented with 10% FBS using polyfect transfection reagent (Qiagen, CA, USA) according to manufacturer’s instructions. Then, 24 h after transfection, the cell culture media were changed with media containing 5% charcoal-stripped FBS to reduce the contaminating steroids from the serum and incubated for an additional day before initiating the treatments. In case of PC-3 cells, they were similarly transfected, but in addition to pMMTV-neomycin-luciferase construct, they were also transfected with pSG5-hAR-puro plasmid (full length hAR in pSG5 expression vector) in the ratio of 5∶1 as indicated above. For experiments involving co-regulators, 50 ng of co-activator plasmids (25 ng each of GRIP-1 and SRC-1) along with pMMTV-neo-luc (250 ng) were transfected to LNCaP cells. To evaluate the transfection efficiency, 500 ng/105 cells of the SV40 promoter-Renilla luciferase (pRL-SV40) vector (Promega Madison, USA) were co-transfected as internal control. […] Each experimental point was performed in triplicate and varied by less than 10%. The values of luciferase for each lysates were normalized to the Renilla luciferase activity.

[2] = system: cleaved caspase-3 in LNCaP cells; experiment: Akt/ERK silencing or inhibition, cleaved caspase-3 immunoblot; assay type: cell-based, human
Method: The siRNAs against human Akt and ERK and control siRNA were purchased commercially from Santa Cruz Biotechnology (USA). The LNCaP and PC-3 PCa cells were transfected with siRNAs (at a final concentration of 100 nM) using polyfect transfection reagent (Qiagen, CA, USA) according to manufacturer’s instructions. After 24 h of transfection, the cells were washed properly and replaced with fresh medium. The cells were then treated with 20 μM conjugate for 24 h, and finally protein lysates were prepared on completion of treatment. The levels of p-Akt, p-ERK and cleaved caspase-3 expressions were detected by Western blot analysis.
Figure 5 Differential role of PI3K/Akt and MAPK/ERK pathways in conjugate induced apoptosis of prostate cancer cells. Effects of siRNA mediated silencing of Akt and ERK on conjugate-induced apoptosis of (A) PC-3 and (B) LNCaP cells. LNCaP and PC-3 PCa cells were transfected with siRNAs (at a final concentration of 100 nM) using polyfect transfection reagent. After 24 h of transfection the cells were treated with 20 μM conjugate and allowed to grow for another 24 h. The cell lysates were prepared and the level of p-Akt, p-ERK and cleaved caspase-3 proteins were detected by immunoblot analysis. The histogram on the right panel of each figure represents densitometric analyses of the image data and expressed as percent of control where the results are mean ± SEM of three independent experiments. *and # represents statistically significant difference with respect to control and 20 μM conjugate treated groups respectively at p<0.05.
Supplementary file pone.0093335.s001.tif: Figure S1 (A) Effects of the Akt Kinase inhibitor (A6730) and/or the ERK inhibitor (PD98059) on the conjugate-induced apoptosis of PC-3 and (B) LNCaP cells. The cells were pre-treated with A6730 (5 μM) and/or PD98059 (20 μM) for 1 h before the addition of 20 μM conjugate for additional 24 h (total inhibitor exposure time was 25 h). The collected cell lysates were then immunoblotted using respective antibodies. The histogram on the right panel of each figure represents densitometric analyses of the image data and expressed as percent of control where the results are mean ± SEM of three independent experiments. *and # represents statistically significant difference with respect to control and 20 μΜ conjugate treated groups respectively at p<0.05. (TIF) Click here for additional data file.

SMILES: COc1cc(/C=C/c2ccc(O)c(/C=N/NC(N)=S)c2)cc(OC)c1 [conjugate, Pterostilbene-isothiocyanate conjugate]
- reduction of DHT-mediated luciferase activity ([1]; PC-3, 5 μM): 19%
- reduction of DHT-mediated luciferase activity ([1]; PC-3, 10 μM): 31%
- reduction of DHT-mediated luciferase activity ([1]; PC-3, 20 μM): 63%
- reduction of DHT-mediated luciferase activity ([1]; PC-3, 30 μM): 70%
- reduction of DHT-mediated luciferase activity ([1]; PC-3, 40 μM): 80%
- increase in cleaved caspase-3 protein level ([2]; Akt-silenced LNCaP cells, 20 μM conjugate): ~4.5 folds
- increase in cleaved caspase-3 level ([2]; ERK-silenced LNCaP cells, 20 μM conjugate): 6.5 folds
- cleaved caspase-3 in ERK-silenced cells plus conjugate relative to conjugate alone ([2]; LNCaP, 20 μM conjugate): about 1.4 times
- level of cleaved caspase-3 vs conjugate alone ([2]; LNCaP, A6730 (5 μM) combined with 20 μM conjugate): did not show any significant increase
- level of cleaved caspase-3 vs conjugate alone ([2]; LNCaP, co-treatment with PD98059 (20 μM) and 20 μM conjugate): significantly increased
